For experiment [1], the system named is Mesangial cells. Put plainly: Wrinkle assay: mesangial cells transfected with GFP, WT HSP20 or S16A-HSP20, on silicone rubber substrata. The format is cell-based. Conditions: dibutyryl cAMP 10 ΦM, 0-90 minutes. The method, then: The experiment was performed in the following fashion: Mesangial cells were transfected with vectors containing green fluorescent protein (GFP) alone, GFP fused to the 5′ end of the wild type cDNA for HSP20 (WT), or GFP fused to an HSP20 construct in which the PKA phosphorylation site was mutated to an alanine (S16A-HSP20) (MUT). The cells were plated on a silicone rubber substrata in the presence of serum for 48 hours. The plates were then placed on the stage of a Zeiss Inverted Fluorescence Microscope with DeltaVision image acquisition and deconvolution software (Applied Precision, Issaquah, Wash.). The DeltaVision software was configured to eight different cells (x and y axis) on each plate with 7 z-axis images taken at […] intervals. Fluorescent and phase contrast images were obtained such that the cells and silicone membrane were imaged in close succession. During the scanning process, the z-axis of each cell was monitored to assure that the imaging stacks were maintained at the appropriate level as the cells relaxed on the silicone membrane. Baseline images were acquired for one hour. The cells were then treated with […] dibutyryl cAMP (10 ΦM) for 0 minutes, 30 minutes, 60 minutes, or 90 minutes, and the results are illustrated in FIG. 1. […]

Experiment [2] has as its system PKG transfected rat aortic smooth muscle cells. Put plainly: Wrinkle assay: PKG transfected rat aortic smooth muscle cells on silicone substrata. Conditions: 10 uM for 30 minutes. It is filed as cell-based. The protocol:
Rat aortic smooth muscle cells that are multiply passaged or that stably express PKG were cultured on a silicone substrata in the presence of serum. The cells were imaged with phase contrast microscopy (10× magnification). […] To determine if the wrinkles were reversible, PKG transfected cells were treated with dibutyryl cAMP (10 uM) for 30 minutes.

The test system of experiment [3] is Mesangial cells. Put plainly: Actin filament staining (rhodamine phalloidin) of transfected mesangial cells. The format is cell-based. Conditions: 10 μM for 30 minutes; cells transfected with EGFP alone or S16A-HSP20. From the text: Transfected mesangial cells were fixed and the actin filaments were stained with fluorescent-labeled phalloidin.
For experiment [4], the system named is bovine carotid artery smooth muscle. Put plainly: Muscle bath: serotonin pre-contracted strips of bovine carotid artery, denuded of endothelium. Conditions: cumulative doses added every 10 minutes; n=5. The method, then: Transverse strips of bovine carotid artery smooth muscle, denuded of endothelium, were suspended in a muscle bath containing bicarbonate buffer (120 mM NaCl, 4.7 mM KCl, 1.0 mM MgSO4, 1.0 mM NaH2PO4, 10 mM glucose, 1.5 mM CaCl2, and 25 mM […], pH 7.4), equilibrated with 95% O2/5% CO2, at 37° C. at one gram of tension for 2 hours. The muscles were pre-contracted with serotonin ([…] for 10 minutes) and cumulative doses of FITC-phosphoHSP20-TAT, FITC-scrambled phosphoHSP20-TAT (FITC-NH2-β[…]*LWALGRPLA-COOH, open circles) (SEQ ID NO:305), or FITC-TAT (FITC-NH2-β[…], closed triangles) (SEQ ID NO:306) were added every 10 minutes. The force is depicted as a percentage of the maximal serotonin contraction (n=5, *=p<0.05 compared to 0 peptide added). Representative strips were fixed in 4% paraformaldehyde and examined under fluorescence microscopy (40× magnification).

In experiment [5] the test system is Rat aortic smooth muscle cells. Put plainly: LPA-induced actin fiber formation, phalloidin staining and confocal microscopy. The format is cell-based. The method, then:
Rat aortic smooth muscle cells were treated with lyophosphatidic acid (LPA) in the presence and absence of FITC-TAT-pHSP20 (FITC-NH2-β[…]*APLPGLK-COOH, 50 uM) (SEQ ID NO:307) Lysophosphatidic acid (LPA) is a substance which promotes actin fiber formation.
The cells were fixed and stained with phalloidin and images were obtained with confocal microscopy. […] These studies confirm that HSP20 has a direct role in modulating actin fiber formation.

Experiment [6] deals with Mesangial cells. Put plainly: Wrinkle assay: mesangial cells on silicone substrata treated with phosphopeptide. The format is cell-based. Conditions: 50 μM peptide; plated 48 hours in serum; phase contrast microscopy; n=10. The method, then:
Mesangial cells were plated on a silicone substrata in the presence of serum and after 48 hours the cells were treated with the FITC-TAT-HSP20 phosphopeptide (50 μM). The number of wrinkles under the cells was determined at the time points indicated using phase contrast microscopy (n=10, *=p<0.05 compared to time 0). Results of this Experiment are illustrated in FIG. 2.

Experiment [7] relates to Bovine aortic endothelial cells. In words: Focal adhesion disassembly, interference reflection microscopy. It is filed as cell-based. Conditions: HSP20 peptides 10 uM for 30 minutes; serum starved one hour. The method, then: Bovine aortic endothelial cells were plated on glass coverslips (80K-100K cells) in DMEM plus 10% FBS over night (24 wells plate). The cells were serum starved (no serum) for one hour and incubated in the presence of the peptide analogues of HSP20 [NH2-βAYARRAAARQARAWLRRAS*APLPGLK-COOH-pHSP20 (10 uM) (SEQ ID NO:307) or scrambled analogues of HSP20 [NH2-βAYARRAAARQARAPRKS*LWALGRPLA-COOH-scHSP20 (10 uM)] (SEQ ID NO:308) for 30 minutes. The cells were fixed with 3% glutaraldehyde and the number of focal adhesions was detected with interference reflection microscopy. The Hep I peptide was used as a positive control. This peptide binds to the heparin binding site of thrombospondin in induces focal adhesion disassembly. […] The results are illustrated in FIG. 7.

Experiment [8] concerns A10 cells. Put plainly: Serum-induced proliferation, cell counts. It is filed as cell-based. Conditions: 50 μM in 10% FBS; 24 hours; serum starved 3 days beforehand. The method, then:
A10 cells were serum starved for 3 days. The cells were then treated with media containing 10% fetal bovine serum, PTD-pHSP20 (NH2-βAYARRAAARQARAWLRRAS*APLPGLK-COOH (SEQ ID NO:307), or PTD-scrambled-pHSP20 (NH2-βAYARRAAARQARAPRKS*LWALGRPLA-COOH (SEQ ID NO:308) (50 μM). After 24 hours cell counts were performed. The number of cells per well in the serum starved plates averaged […] (+/−7.4) compared to 276+/−6.1 in wells containing 10% fetal bovine serum (FBS). In the presence of FBS, the phosphopeptide analogues of HSP20 containing a transduction domain inhibited of smooth muscle proliferation, 149+/−14.6 compared to transduction of the scrambled phosphopeptide analogue of HSP20 (242.3+/−15.3 cells/well). The results of these experiments are illustrated in FIG. 9.

Experiment [9] has as its system rabbit aorta. In words: Muscle bath: rabbit aorta rings pre-contracted with norepinephrine, endothelium not denuded. Conditions: pre-contracted with norepinephrine 10^−7 M; for relaxation and inhibition of spasm: peptides retained the Fmoc moiety. The protocol:
Rings of rabbit aorta in which the endothelium was not denuded, were suspended in a muscle bath containing bicarbonate buffer (120 mM NaCl, 4.7 mM KCl, 1.0 mM MgSO4, 1.0 mM NaH2PO4, 10 mM glucose, 1.5 mM CaCl2, and 25 mM […], pH 7.4), equilibrated with 95% O2/5% CO2, at 37° C. at one gram of tension for 2 hours. The rings were pre-contracted with norepinephrine (10^−7 M) and treated with RRRRRRApSAPLP (SEQ ID NO:309) or RRRRWLRRApSAPLP (SEQ ID NO:310). […] The peptides used were prepared by Fmoc-based peptide synthesis, and the peptides retained the Fmoc moiety at the amino terminus of the peptide.

Non-standard residues stand in square brackets, D forms with d. No end group written: not given here. *: point of attachment. FITC = O=C1OC2(c3ccc(O)cc3Oc3cc(O)ccc32)c2ccc(NC(=S)*)cc21; Fmoc = O=C(OCC1c2ccccc2-c2ccccc21)*; pS = N[C@@H](COP(=O)(O)O)C(=O)O; βAla = NCCC(=O)O

We go through 8 molecules from US8044018B2, “Reagents and methods for smooth muscle therapies” (Arizona Board of Regents, priority 2008, dated 2011).

Turning to `CCCC(=O)Nc1ncnc2c1ncn2[C@@H]1O[C@@H]2COP(=O)(O)O[C@H]2[C@H]1OC(=O)CCC` [dibutyryl cAMP], the “wrinkles under the cells (relaxation)” value in experiment [1] (cells expressing S16A-HSP20 (MUT)) is “did not relax”; in [1] (control cells expressing GFP), “relaxed over time”. In addition, the wrinkle formation result in experiment [2] is listed as “decrease in wrinkle formation”. Besides, in experiment [3], the “central actin stress fibers” value is “loss of central actin stress fibers in EGFP but not S16A-HSP20 cells”.
“FITC-NH2-βAGGGGYGRKKRRQRRR ({FITC}-[βAla]GGGGYGRKKRRQRRR) [FITC-TAT, FITC-labelled TAT transduction domain alone, control]”: the “contractile force as percentage of the maximal serotonin contraction” value (“contractile force as percentage” below) in [4] is reported as “no significant effect”.
Take “FITC-NH2-βAGGGGYGRKKRRQRRRPRKS*LWALGRPLA-COOH ({FITC}-[βAla]GGGGYGRKKRRQRRRPRK[pS]LWALGRPLA-OH) [FITC-scrambled phosphoHSP20-TAT]”: the “contractile force as percentage” value in [4] is on record as “no significant effect”.
Regarding “Lysophosphatidic acid [LPA, reference compound]”, the “actin stress fiber formation” value in experiment [5] (LPA alone) is listed as “robust actin stress fiber formation”.
As for “NH2-βAGGGGYGRKKRRQRRRWLRRAS*APLPGLK-COOH ([βAla]GGGGYGRKKRRQRRRWLRRA[pS]APLPGLK-OH; not fully specified (N-terminus); printed as NH2-βAGGGGYGRKKRRQRRRWLRRAS*APLPGLK-COOH; also: FITC label, position not given here) [FITC-TAT-HSP20]”, the “number of wrinkles under the cells (relaxation of the cells)” value in experiment [6] is listed as “time dependent loss of wrinkles”. For the same molecule, the “central actin stress fibers” value in experiment [5] (LPA in the presence of peptide, 50 uM) is recorded as “loss of central actin stress fibers”. Also, the “contractile force as percentage” value in experiment [4] is “dose dependent decrease”.
For “NH2-βAYARRAAARQARAPRKS*LWALGRPLA-COOH (AYARRAAARQARAPRKSLWALGRPLA; HELM PEPTIDE1{[bAla].Y.A.R.R.A.A.A.R.Q.A.R.A.P.R.K.[O=C([C@H](COP(=O)(O)O)N[*:1])[*:2]].L.W.A.L.G.R.P.L.A}$$$$V2.0; SMILES CC(C)C[C@H](NC(=O)[C@H](C)NC(=O)[C@H](Cc1c[nH]c2ccccc12)NC(=O)[C@H](CC(C)C)NC(=O)[C@H](COP(=O)(O)O)NC(=O)[C@H](CCCCN)NC(=O)[C@H](CCCNC(=N)N)NC(=O)[C@@H]1CCCN1C(=O)[C@H](C)NC(=O)[C@H](CCCNC(=N)N)NC(=O)[C@H](C)NC(=O)[C@H](CCC(N)=O)NC(=O)[C@H](CCCNC(=N)N)NC(=O)[C@H](C)NC(=O)[C@H](C)NC(=O)[C@H](C)NC(=O)[C@H](CCCNC(=N)N)NC(=O)[C@H](CCCNC(=N)N)NC(=O)[C@H](C)NC(=O)[C@H](Cc1ccc(O)cc1)NC(=O)CCN)C(=O)NCC(=O)N[C@@H](CCCNC(=N)N)C(=O)N1CCC[C@H]1C(=O)N[C@@H](CC(C)C)C(=O)N[C@@H](C)C(=O)O) [PTD-scrambled-pHSP20, Scrambled analogue of the HSP20 phosphopeptide with PTD, control, reference compound]”, the “focal adhesion disassembly (number of focal adhesions)” value in experiment [7] is listed as “no significant effect”. In addition, in experiment [8], the “number of cells per well” value is 242.3+/−15.3 cells/well.
As to RRRRRRApSAPLP (Fmoc-RRRRRRA[pS]APLP), in experiment [9], the “speed and duration of relaxation compared with the longer peptides” value is “relaxation was faster and the muscles remained in a relaxed state for longer”; the “relaxation and inhibition of spasm” value is “rapid and complete relaxation and inhibition of spasm”.
With “RRRRWLRRApSAPLP (Fmoc-RRRRWLRRA[pS]APLP)”, in [9], the “speed and duration of relaxation compared with the longer peptides” value is “relaxation was faster and the muscles remained in a relaxed state for longer”; the “relaxation and inhibition of spasm” value is “rapid and complete relaxation and inhibition of spasm”.
